Like-named read-outs stand apart in the source and are kept apart here. Marks after values point to notes of the source that are not given here.
What was measured:
[1] = In vitro liver microsome stability (RLM); format: in vitro ADME; conditions: rat, rat liver microsomes, 0.5 mg/mL microsomes, NADPH, read-out: RLM, t1/2
Procedure: In vitro stability was determined in Human (HLM), Rat (RLM), Mouse (MsLM), and dog (DLM) Liver Microsomes. All liver microsomes were purchased from a commercial supplier (e.g. XenoTech). The reaction mixture, minus NADPH, was prepared as described below. The test compound was added into the reaction mixture at a final concentration of 1 μM or co-dosed with their deuterated analog(s) at 1 μM each. The control compound, testosterone, was run simultaneously with the test compound in a separate reaction. The reaction mixture (without cofactor) was equilibrated in a shaking water bath at 37° C. for 5 minutes. The reaction was initiated by the addition of the cofactor, and the mixture was incubated in a shaking water bath at 37° C. Aliquots (150 μL) were withdrawn at 0, 5, 10, 20, 30, 60, and 120 minutes. Test compound and testosterone samples were immediately combined with 150 μL of ice-cold acetonitrile (ACN) containing 0.1% formic acid and internal standard to terminate the reaction. The samples were then mixed and centrifuged to precipitate proteins. All samples were assayed by LC-MS/MS using electrospray ionization. The peak area response ratio (PARR) of analyte to internal standard at each time point was compared to the PARR at time 0 to determine the percent remaining at each time point. Half-lives were calculated using GraphPad software, fitting to a single-phase exponential decay equation.

MAO-A = MAO-A (Homo sapiens (Human), UniProt P21397); test: Recombinant human MAO-A activity (stability); format: in vitro ADME; conditions: hrMAO 0.02 mg/mL, read-out: MAO-A, t1/2
Procedure: hrMAO-A and MAO control were purchased from XenoTech. The reaction mixture was prepared as described below. The test compound was added into the reaction mixture at a final concentration of 1 μM or co-dosed with their deuterated analog at 1 μM each. The positive control kynuramine (25 μM) was run simultaneously with the test compound in a separate reaction. The reaction mixture (without test compounds or kynuramine) was equilibrated in a shaking water bath at 37° C. for 5 minutes. The reaction was initiated by the addition of the test compound or kynuramine, and the mixture was incubated in a shaking water bath at 37° C. Aliquots (150 μL) of the test compound reaction mixture were withdrawn at 0, 5, 10, 20, 30, 60, and 120 minutes. Aliquots (150 μL) of the positive control reaction mixture were withdrawn at 0 and 30 minutes. Test compound(s) and kynuramine samples were immediately combined with 150 μL of ice-cold 100% acetonitrile containing 0.1% formic acid and internal standard (0.2 μM metoprolol) to terminate the reaction. The samples were then mixed and centrifuged to precipitate proteins. All samples were assayed by LC-MS/MS. The peak area response ratio (PARR) of analyte to internal standard at each time point was compared to the PARR at time 0 to determine the percent remaining at each time point. Half-lives were calculated using GraphPad software, fitting to a single-phase exponential decay equation.

5-HT2A receptor [2] = molecular target: T1, 5-HT2A receptor (Homo sapiens (Human), UniProt P28223); test: 5-HT2A radioligand competition binding ([3H]LSD or [3H]ketanserin)
human 5-HT2B receptor = human 5-HT2B receptor (Homo sapiens (Human), UniProt P41595); test: 5-HT2B functional assay, IP1 (IPOne); format: cell-based; conditions: for Emax: IP1 assay, relative to 5-HT
Procedure: 5-HT2A,2B,2C receptor-mediated Gq activation—canonical signaling pathways—[phosphoinositide hydrolysis leading to the production of inositol phosphate 1 (IP1, IPOne, Cisbio assay) or direct G-protein activation using TRUPATH technology]were measured as previously described (Porter, R. H. P., Benwell, K. R., Lamb, H., Malcolm, C. S., Allen, N. F., Revell, D. F., Adams, D. R. and Sheardown, M. J., 1999, Functional characterization of agonists at recombinant human 5-HT2a, 5HT2b and 5-HT2c receptors in CHO-K1 cells, Brit J Pharmacol 128, 13; Olsen, R. H. J., DiBerto, J. F., English, J. G. et al. TRUPATH, an open-source biosensor platform for interrogating the GPCR transducerome. […] Briefly, for the IPOne assay, for 5-HT2ARs, CHO-K1 or HEK-293 cells were incubated with test articles and 5-HT (positive control) in stimulation buffer containing LiCl. After incubation, cells were lysed and fluorescence acceptor and donor were added. FRET was measured after 60 min at room temperature using a microplate reader (Envision, Perkin Elmer). TRUPATH assays followed a similar workflow, except that different reagents were used, and LiCl was not included in the samples; the protocol was based on the report by Olsen, R. H. J. et al., cited above.

5-HT2A receptor [3] = molecular target: T1, 5-HT2A receptor; test: 5-HT2A functional assay, IP1 (IPOne); format: cell-based; conditions: IP1 assay; for EC50: read-out: 5-HT2A EC50; for Emax: relative to 5-HT
Procedure: After incubation, cells were lysed and fluorescence acceptor and donor were added. FRET was measured after 60 min at room temperature using a microplate reader (Envision, Perkin Elmer). TRUPATH assays followed a similar workflow, except that different reagents were used, and LiCl was not included in the samples; the protocol was based on the report by Olsen, R. H. J. et al., cited above.

mice = test: Head-twitch response (HTR) screening in mice; format: in vivo, mouse
Procedure: Protocols were followed according to Canal C E, Morgan D. Head-twitch response in rodents induced by the hallucinogen 2,5-dimethoxy-4-iodoamphetamine: a comprehensive history, a re-evaluation of mechanisms, and its utility as a model. […] Mice were housed in standard laboratory cages with ad libitum access to food and water and were acclimated to the vivarium for at least one week prior to testing in a procedure room. In a typical experiment, mice were injected 3 mg/kg of test article subcutaneously. Mice were placed immediately thereafter in a clear, polycarbonate box (46×20×20 cm), and HTRs were counted at various time points after administration using hand-held tally counters. In a separate experiment, plasma and brain samples were collected at 15 and 160 minutes after administration of test compounds to measure plasma and brain concentrations. Quantification was performed using LC-MS/MS method (LLOQ, 9 nM).

[4] = Plasma and brain concentrations after dosing in mice (screening); format: in vivo, mouse; conditions: mouse; for concentration at 15 min / concentration at 160 min: sc, mice, 3 mg/kg s.c.; for Kp at 160 min: brain/plasma, subcutaneous, 3 mg/kg, 160 min after 3 mg/kg, read-out: brain/plasma ratio, 160 min
[5] = read-out: 5-HT2A, Ki, radioligand [3H]LSD
[6] = brain, read-out: Brain, 160 min
[7] = plasma, read-out: Plasma, 15 min
[8] = plasma, read-out: Plasma, 160 min
[9] = read-out: 5-HT2A, Ki, radioligand [3H]ketanserin

MAO-A, sequence (P21397 whole entry, looked up): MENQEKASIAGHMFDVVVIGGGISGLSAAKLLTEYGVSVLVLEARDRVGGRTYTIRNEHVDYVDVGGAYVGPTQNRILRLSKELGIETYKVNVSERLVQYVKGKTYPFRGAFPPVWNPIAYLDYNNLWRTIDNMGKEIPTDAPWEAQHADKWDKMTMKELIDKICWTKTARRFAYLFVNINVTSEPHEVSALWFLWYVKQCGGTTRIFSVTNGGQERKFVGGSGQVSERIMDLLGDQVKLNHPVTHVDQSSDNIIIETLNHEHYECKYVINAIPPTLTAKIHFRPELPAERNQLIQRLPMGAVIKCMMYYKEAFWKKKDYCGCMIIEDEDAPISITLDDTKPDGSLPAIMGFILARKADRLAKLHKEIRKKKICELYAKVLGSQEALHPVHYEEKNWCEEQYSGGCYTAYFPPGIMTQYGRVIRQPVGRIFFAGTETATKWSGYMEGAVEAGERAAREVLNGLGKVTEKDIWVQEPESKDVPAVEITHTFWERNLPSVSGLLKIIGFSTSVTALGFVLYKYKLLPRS
human 5-HT2B receptor, sequence (P41595 whole entry, looked up): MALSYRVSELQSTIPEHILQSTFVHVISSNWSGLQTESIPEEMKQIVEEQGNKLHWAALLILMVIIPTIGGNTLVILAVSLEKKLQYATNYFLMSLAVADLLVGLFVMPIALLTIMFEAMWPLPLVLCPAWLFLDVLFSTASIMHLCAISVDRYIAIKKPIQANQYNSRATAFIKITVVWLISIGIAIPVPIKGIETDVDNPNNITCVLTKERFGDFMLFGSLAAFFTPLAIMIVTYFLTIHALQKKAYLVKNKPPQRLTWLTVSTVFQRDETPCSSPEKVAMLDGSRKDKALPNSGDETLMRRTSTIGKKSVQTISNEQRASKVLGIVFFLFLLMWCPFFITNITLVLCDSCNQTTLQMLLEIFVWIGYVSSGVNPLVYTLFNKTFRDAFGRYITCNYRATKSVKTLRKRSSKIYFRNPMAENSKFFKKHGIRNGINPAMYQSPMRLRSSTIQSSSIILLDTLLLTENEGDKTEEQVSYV

COc1cc(SCCC(F)(F)F)c(OC)cc1CCN [Compound I-2, 2-(2,5-dimethoxy-4-((3,3,3-trifluoropropyl)thio)phenyl)ethan-1-amine]
half-life at 1 μM [1]: 24.8 min | half-life at 1 μM (MAO-A): 30.9 min | affinity at 5-HT2A receptors (in words) (5-HT2A receptor [2]): high affinity | Ki (5-HT2A receptor [2]; [5]): 8.5 nM

COc1cc(SCCCF)c(OC)cc1CCN [Compound I-4, 2-(4-((3-fluoropropyl)thio)-2,5-dimethoxyphenyl)ethan-1-amine]
half-life at 1 μM [1]: 11 min | half-life at 1 μM (MAO-A): 45 min | affinity at 5-HT2A receptors (in words) (5-HT2A receptor [2]): high affinity | Ki (5-HT2A receptor [2]; [5]): 12 nM

COc1cc(OCCC(F)(F)F)c(OC)cc1CCN [Compound I-5, 2-(2,5-dimethoxy-4-(3,3,3-trifluoropropoxy)phenyl)ethan-1-amine]
half-life at 1 μM [1]: > 120 min | Ki (5-HT2A receptor [2]): > 150 nM

COc1cc(OCCC(F)F)c(OC)cc1CCN [Compound I-6, 2-(4-(3,3-difluoropropoxy)-2,5-dimethoxyphenyl)ethan-1-amine]
half-life at 1 μM [1]: > 120 min | Ki (5-HT2A receptor [2]): > 150 nM

COc1cc(OCCCF)c(OC)cc1CCN [Compound I-7, 2-(4-(3-fluoropropoxy)-2,5-dimethoxyphenyl)ethan-1-amine]
half-life at 1 μM [1]: > 120 min | half-life at 1 μM (MAO-A): > 120 min | Ki (5-HT2A receptor [2]): > 150 nM | Ki (5-HT2A receptor [2]; [5]): 2600 nM

COc1cc(SCC(F)(F)C(F)F)c(OC)cc1CCN [Compound I-10, 2-(2,5-dimethoxy-4-((2,2,3,3-tetrafluoropropyl)thio)phenyl)ethan-1-amine]
EC50 (human 5-HT2B receptor): 240 nM | Emax (human 5-HT2B receptor): 84% | 2A/2B EC50 Selectivity (5-HT2A receptor [3]): 2.7 | EC50 (5-HT2A receptor [3]): 89 nM | Emax (5-HT2A receptor [3]): 76% | HTR 15-25 min (mice; mice, 3 mg/kg s.c.): 3.4 | HTR 160-170 min (mice; mice, 3 mg/kg s.c.): 2.7 | concentration at 15 min ([4]; brain, read-out: Brain 15 min): 900 nM | concentration at 160 min [4, 6]: 1100 nM | Kp at 160 min [4]: 12.3 | concentration at 15 min [4, 7]: 900 nM | concentration at 160 min [4, 8]: 100 nM | affinity at 5-HT2A receptors (in words) (5-HT2A receptor [2]): high affinity

C#CCSc1cc(OC)c(CCN)cc1OC [Compound I-11, 2-(2,5-dimethoxy-4-(prop-2-yn-1-ylthio)phenyl)ethan-1-amine]
HTR 15-25 min (mice; calculated using 0-30 min): 24.5 #### | HTR 160-170 min (mice; mice, 3 mg/kg s.c.): 16.7 | Ki (5-HT2A receptor [2]; [5]): 1.3 nM

COc1cc(C2CCCC2)c(OC)cc1CCN [Compound I-13, 2-(4-cyclopentyl-2,5-dimethoxyphenyl)ethan-1-amine]
half-life at 1 μM [1]: 7.8 min | HTR (in words) (mice; 3 mg/kg): did not elicit an HTR | HTR 15-25 min (mice; mice, 3 mg/kg s.c.): 2.7 | half-life at 1 μM (MAO-A): > 120 min | affinity at 5-HT2A receptors (in words) (5-HT2A receptor [2]): appreciable affinity | Ki (5-HT2A receptor [2]; [5]): 150 nM

[2H]C([2H])([2H])Oc1cc(SC)c(OC([2H])([2H])[2H])cc1CCN [II-1, 2-(2,5-bis(methoxy-d3)-4-(methylthio)phenyl)ethan-1-amine]
half-life at 1 μM [1]: 5.7 min | HTR 15-25 min (mice; measured 0-15 min): 21 ## | Ki (5-HT2A receptor [2]): > 150 nM | Ki (5-HT2A receptor [2]; [9]): 174 nM

[2H]C([2H])([2H])Oc1cc(C(C)(C)C)c(OC([2H])([2H])[2H])cc1CCN [II-3, 2-(4-(tert-butyl)-2,5-bis(methoxy-d3)phenyl)ethan-1-amine]
half-life at 1 μM [1]: 2.4 min | Ki (5-HT2A receptor [2]; [5]): 11 nM

[2H]C([2H])([2H])Oc1cc(C2CCCC2)c(OC([2H])([2H])[2H])cc1CCN [II-4, 2-(4-cyclopentyl-2,5-bis(methoxy-d3)phenyl)ethan-1-amine]
half-life at 1 μM [1]: 7.5 min | half-life at 1 μM (MAO-A): > 120 min | Ki (5-HT2A receptor [2]): > 150 nM | Ki (5-HT2A receptor [2]; [5]): 202 nM

[2H]C([2H])([2H])Oc1cc(C(F)(F)F)c(OC([2H])([2H])[2H])cc1CCN [II-23, 2-(2,5-bis(methoxy-d3)-4-(trifluoromethyl)phenyl)ethan-1-amine]
half-life at 1 μM [1]: 21.4 min | half-life at 1 μM (MAO-A): > 120 min | Ki (5-HT2A receptor [2]; [9]): 55 nM

[2H]C([2H])([2H])C(c1cc(OC)c(CCN)cc1OC)(C([2H])([2H])[2H])C([2H])([2H])[2H] [III-2, 2-(2,5-dimethoxy-4-(2-(methyl-d3)propan-2-yl-1,1,1,3,3,3-d6)phenyl)ethan-1-amine]
half-life at 1 μM [1]: 2.5 min | Ki (5-HT2A receptor [2]): 10 nM

[2H]C([2H])(N)Cc1cc(OC)c(SC)cc1OC [IV-1, 2-(2,5-dimethoxy-4-(methylthio)phenyl)ethan-1,1-d2-1-amine]
half-life at 1 μM [1]: 5.3 min | Ki (5-HT2A receptor [2]): > 150 nM | Ki (5-HT2A receptor [2]; [9]): 357 nM

COc1cc(SC)c(OC)cc1CCN [Reference Compound 3, 2-(2,5-dimethoxy-4-(methylthio)phenyl)ethan-1-amine, reference compound]
half-life at 1 μM [1]: 5.2 min | HTR 15-25 min (mice; measured 0-15 min): 19 ## | half-life at 1 μM (MAO-A): > 120 min | Ki (5-HT2A receptor [2]; [9]): 296 nM

COc1cc(C(C)(C)C)c(OC)cc1CCN [VI-1, 2-(4-(tert-butyl)-2,5-dimethoxyphenyl)ethan-1-amine]
half-life at 1 μM [1]: 2.4 min | EC50 (human 5-HT2B receptor): 25 nM | Emax (human 5-HT2B receptor): 87% | 2A/2B EC50 Selectivity (5-HT2A receptor [3]): 6 | EC50 (5-HT2A receptor [3]): 4.2 nM | Emax (5-HT2A receptor [3]): 87% | HTR 15-25 min (mice; mice, 3 mg/kg s.c.): 24.5 | HTR 160-170 min (mice; mice, 3 mg/kg s.c.): 17.7 | concentration at 15 min ([4]; brain, read-out: Brain 15 min): 2900 nM | concentration at 160 min [4, 6]: 4600 nM | Kp at 160 min [4]: 57.1 | concentration at 15 min [4, 7]: 250 nM | concentration at 160 min [4, 8]: 80 nM | Ki (5-HT2A receptor [2]; [5]): 9.9 nM
